Common to all, as to assay type: biochemical
Assay [1] deals with T1, zfSARM1 (zebrafish SARM1, zfSARM1 w.t.) (Danio rerio, UniProt F1QWA8).
T1 sequence (F1QWA8 22-713): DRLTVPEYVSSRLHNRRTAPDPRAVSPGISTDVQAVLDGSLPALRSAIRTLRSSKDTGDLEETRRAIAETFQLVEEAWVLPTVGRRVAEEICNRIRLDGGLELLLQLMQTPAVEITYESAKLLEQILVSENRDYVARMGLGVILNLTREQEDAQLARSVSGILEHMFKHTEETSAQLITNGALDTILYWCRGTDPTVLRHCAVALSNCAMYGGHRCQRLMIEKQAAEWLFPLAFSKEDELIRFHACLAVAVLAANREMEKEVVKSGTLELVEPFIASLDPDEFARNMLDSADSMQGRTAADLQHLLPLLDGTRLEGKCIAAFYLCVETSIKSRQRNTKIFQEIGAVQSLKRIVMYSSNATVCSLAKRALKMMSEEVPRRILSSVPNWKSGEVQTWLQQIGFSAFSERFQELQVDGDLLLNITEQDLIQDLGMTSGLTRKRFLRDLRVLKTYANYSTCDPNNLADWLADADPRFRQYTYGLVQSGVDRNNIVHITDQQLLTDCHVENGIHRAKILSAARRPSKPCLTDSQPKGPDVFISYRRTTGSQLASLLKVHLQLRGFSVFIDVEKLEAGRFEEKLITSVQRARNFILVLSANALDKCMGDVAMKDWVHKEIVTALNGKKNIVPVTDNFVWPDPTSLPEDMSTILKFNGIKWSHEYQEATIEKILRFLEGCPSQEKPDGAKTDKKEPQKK
As to the kind of experiment: HPLC of ADPR formation.

In assay [2] the target is T2, hSARM1 (hSARM1 w.t., near-intact, 26ERL...GPT724) (Homo sapiens, UniProt Q6SZW1).
T2 sequence (Q6SZW1 26-724): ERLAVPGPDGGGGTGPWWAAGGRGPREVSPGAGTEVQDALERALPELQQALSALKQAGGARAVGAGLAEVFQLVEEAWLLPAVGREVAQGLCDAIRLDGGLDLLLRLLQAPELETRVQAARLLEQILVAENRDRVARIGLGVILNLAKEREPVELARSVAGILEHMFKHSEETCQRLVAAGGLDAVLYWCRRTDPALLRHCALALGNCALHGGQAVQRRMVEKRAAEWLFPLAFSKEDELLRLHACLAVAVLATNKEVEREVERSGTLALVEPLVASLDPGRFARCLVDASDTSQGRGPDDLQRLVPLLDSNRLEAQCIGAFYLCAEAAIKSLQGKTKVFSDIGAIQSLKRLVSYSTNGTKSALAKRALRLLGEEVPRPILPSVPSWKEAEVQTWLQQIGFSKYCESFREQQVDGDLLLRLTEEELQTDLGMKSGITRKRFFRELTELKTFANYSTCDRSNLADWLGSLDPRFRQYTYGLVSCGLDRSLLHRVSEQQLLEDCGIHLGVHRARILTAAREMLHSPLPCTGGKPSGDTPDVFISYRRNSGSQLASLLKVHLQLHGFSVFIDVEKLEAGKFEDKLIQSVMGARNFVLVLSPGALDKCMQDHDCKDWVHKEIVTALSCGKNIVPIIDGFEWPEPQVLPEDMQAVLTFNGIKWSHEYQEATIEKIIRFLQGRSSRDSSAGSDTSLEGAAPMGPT
As to the kind of experiment: HPLC of ADPR formation.

The target in assay [3] is T1, zfSARM1 (zebrafish SARM1, zfSARM1 w.t.). As to the kind of experiment: NADase kinetics, HPLC, substrate inhibition fit. The conditions noted are these: apparent substrate inhibition by NAD+.
The target in assay [4] is T2, hSARM1 (hSARM1 w.t., near-intact, 26ERL...GPT724). As to the kind of experiment: NADase kinetics, HPLC, substrate inhibition fit. The settings on record: apparent substrate inhibition by NAD+.

The results in this text go back to doi:10.1101/2022.03.02.482641v1 (biorxiv, 2022).

Take `N#Cc1c(O)nsc1Nc1ccccc1C(F)(F)F` [TK138]: a half-maximal effect in assay [1] (EC50) was put at 2700 nM. For the same molecule, 2.9 µM corresponded to half-maximal inhibition in assay [2] (IC50). With `Cn1c(=O)c(I)c(O)c2ccccc21` [TK210], inhibition in assay [2] was half-maximal at 4.6 µM (IC50). Take `CCOC(=O)Cn1sc2nc(C)cc(C)c2c1=O` [TK142]: inhibition in assay [2] was half-maximal at 1.8 µM (IC50). On the same count and under the same terms, the figure for `O=c1[nH]sc2ccccc12` [TK222] is 3.2 µM. In the case of `NC(=O)c1ccc[n+]([C@@H]2O[C@H](COP(=O)([O-])OP(=O)(O)OC[C@H]3O[C@@H](n4cnc5c(N)ncnc54)[C@H](O)[C@@H]3O)[C@@H](O)[C@H]2O)c1` [NAD+], the Ki in assay [3] was found to be 1350 µM; in assay [4], 727 µM.
